Values of other authors as cited in patent publication US20250302750A1, “PHARMACEUTICAL COMPOSITION OF BEMPEDOIC ACID” (Renata Pharmaceuticals (Ireland) Ltd, priority 2022, published 2025).

Experiments:
[1] = solid state; per US 20180338922

Structure (SMILES): CC(C)(CCCCCC(O)CCCCCC(C)(C)C(=O)O)C(=O)O [Bempedoic acid]
- Solubility in water: poorly soluble
- Flow characteristics [1]: poor flow characteristics
- Stickiness [1]: very sticky
